Data on 8 molecules can be found in ChEMBL document CHEMBL1629443 (J Med Chem, 2010).

Assay [1] is described as follows: Inhibition of PKA by flash plate based radioactive enzyme assay.
Assay [2] relates to HeLa. The assay is described as follows: Cytotoxicity against human HeLa cells overexpressing HDAC by resazurin dye reduction assay.
In assay [3] the target is Tyrosine-protein kinase ABL1 (Homo sapiens, UniProt P00519). Kind of assay: Inhibition of ABL1 by flash plate based radioactive enzyme assay.
The target of assay [4] is Serine/threonine-protein kinase PLK1 (Homo sapiens, UniProt P53350). Kind of assay: Inhibition of PLK1 by flash plate based radioactive enzyme assay.
Assay [5] has as its system A549. Kind of assay: Cytotoxicity against human A549 cells overexpressing HDAC by resazurin dye reduction assay. On the technique in general: Alamar Blue is a resazurin reagent that responds to reducing activity.
Assay [6] relates to SK-BR-3. Kind of assay: Cytotoxicity against human SKBR3 cells overexpressing HER2 by resazurin dye reduction assay.
Assay [7] has as its system CAL-27. The assay is described as follows: Cytotoxicity against human CAL27 cells overexpressing EGFR by resazurin dye reduction assay.
Assay [8] deals with Histone deacetylase. Kind of assay: Inhibition of HDAC in human HeLa cell nuclear extracts. The format is cell-based.
For assay [9], the target named is Histone deacetylase 3 (Homo sapiens, UniProt O15379). Kind of assay: Inhibition of Flag tagged human recombinant HDAC3 expressed in Sf21 cells coexpressing SMRT DAD domain.
Assay [10] has as its target Histone deacetylase 1 (Homo sapiens, UniProt Q13547). Kind of assay: Inhibition of human recombinant HDAC1 expressed in HEK293 cells. The format is cell-based.
Assay [11] relates to A-431. The assay is described as follows: Cytotoxicity against human A431 cells overexpressing EGFR by resazurin dye reduction assay.
The target in assay [12] is Receptor tyrosine-protein kinase erbB-2 (Homo sapiens, UniProt P04626). Kind of assay: Inhibition of HER2 by flash plate based radioactive enzyme assay.
The target of assay [13] is T1, Protein deacetylase HDAC6 (Homo sapiens, UniProt Q9UBN7).
T1 sequence (Q9UBN7 whole entry): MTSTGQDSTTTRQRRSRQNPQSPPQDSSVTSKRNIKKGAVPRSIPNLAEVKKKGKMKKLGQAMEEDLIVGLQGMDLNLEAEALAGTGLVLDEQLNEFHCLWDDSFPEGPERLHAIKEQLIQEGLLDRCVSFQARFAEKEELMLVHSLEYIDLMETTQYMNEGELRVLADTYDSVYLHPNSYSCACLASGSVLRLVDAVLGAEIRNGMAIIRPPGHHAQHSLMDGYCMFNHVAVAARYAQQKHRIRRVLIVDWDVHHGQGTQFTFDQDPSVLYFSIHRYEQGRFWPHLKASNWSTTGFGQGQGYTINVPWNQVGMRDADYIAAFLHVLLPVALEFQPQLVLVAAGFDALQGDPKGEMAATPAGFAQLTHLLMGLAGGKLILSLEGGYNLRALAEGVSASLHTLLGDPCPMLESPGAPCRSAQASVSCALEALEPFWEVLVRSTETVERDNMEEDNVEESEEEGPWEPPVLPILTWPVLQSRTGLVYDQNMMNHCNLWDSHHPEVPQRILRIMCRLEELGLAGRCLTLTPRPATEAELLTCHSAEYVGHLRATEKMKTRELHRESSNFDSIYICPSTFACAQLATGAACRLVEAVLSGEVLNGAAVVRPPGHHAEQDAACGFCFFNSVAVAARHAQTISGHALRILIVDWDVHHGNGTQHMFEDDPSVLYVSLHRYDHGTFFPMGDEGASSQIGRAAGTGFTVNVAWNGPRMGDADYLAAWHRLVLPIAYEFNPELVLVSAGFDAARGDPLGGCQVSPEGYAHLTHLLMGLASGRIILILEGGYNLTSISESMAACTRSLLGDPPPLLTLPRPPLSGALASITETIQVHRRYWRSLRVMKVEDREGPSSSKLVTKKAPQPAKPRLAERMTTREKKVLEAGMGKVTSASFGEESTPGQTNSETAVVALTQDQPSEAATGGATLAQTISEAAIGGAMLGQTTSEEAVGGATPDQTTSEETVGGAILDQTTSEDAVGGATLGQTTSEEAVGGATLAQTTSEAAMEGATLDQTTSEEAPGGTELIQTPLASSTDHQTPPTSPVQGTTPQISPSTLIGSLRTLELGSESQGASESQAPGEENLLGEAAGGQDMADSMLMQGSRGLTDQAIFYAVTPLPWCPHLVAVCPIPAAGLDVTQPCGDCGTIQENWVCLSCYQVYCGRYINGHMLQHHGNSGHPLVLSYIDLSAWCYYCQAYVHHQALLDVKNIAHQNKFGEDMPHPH
The assay is described as follows: Inhibition of human recombinant HDAC6 expressed in HEK293 cells. The format is cell-based.

In assay [14] the target is Epidermal growth factor receptor (Homo sapiens, UniProt P00533). The assay is described as follows: Inhibition of EGFR by flash plate based radioactive enzyme assay.
The subject of assay [15] is SK-OV-3. The assay is described as follows: Cytotoxicity against human SKOV3 cells overexpressing HER2 by resazurin dye reduction assay. The format is functional, cell-based.
The target in assay [16] is Platelet-derived growth factor receptor beta (Homo sapiens, UniProt P09619). The assay is described as follows: Inhibition of PDGFRbeta by flash plate based radioactive enzyme assay.
The target of assay [17] is Cyclin-dependent kinase 2 (Homo sapiens, UniProt P24941). The assay is described as follows: Inhibition of CDK2 by flash plate based radioactive enzyme assay.
The target in assay [18] is Insulin receptor (Homo sapiens, UniProt P06213). Kind of assay: Inhibition of INSR by flash plate based radioactive enzyme assay.
Assay [19] addresses T2, Histone deacetylase 8 (Homo sapiens, UniProt Q9BY41).
T2 sequence (Q9BY41 whole entry): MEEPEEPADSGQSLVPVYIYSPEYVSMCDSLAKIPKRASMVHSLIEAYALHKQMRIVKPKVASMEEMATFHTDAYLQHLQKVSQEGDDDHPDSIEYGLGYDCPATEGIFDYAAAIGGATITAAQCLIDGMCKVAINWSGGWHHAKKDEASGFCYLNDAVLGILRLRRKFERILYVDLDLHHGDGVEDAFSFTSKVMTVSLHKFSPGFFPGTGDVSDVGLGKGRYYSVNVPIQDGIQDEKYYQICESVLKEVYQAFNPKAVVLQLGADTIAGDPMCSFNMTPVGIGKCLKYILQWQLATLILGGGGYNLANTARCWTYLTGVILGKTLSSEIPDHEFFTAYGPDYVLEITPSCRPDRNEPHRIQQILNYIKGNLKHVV
The assay is described as follows: Inhibition of Flag tagged human recombinant HDAC8 expressed in Sf21 cells.

Assay [20] in a line: Inhibition of HDAC assessed as histone H3K'9+14 acetylation levels by cell based histone H3 hyperacetylation assay.

Sequence of Insulin receptor (P06213 28-758 limits assumed): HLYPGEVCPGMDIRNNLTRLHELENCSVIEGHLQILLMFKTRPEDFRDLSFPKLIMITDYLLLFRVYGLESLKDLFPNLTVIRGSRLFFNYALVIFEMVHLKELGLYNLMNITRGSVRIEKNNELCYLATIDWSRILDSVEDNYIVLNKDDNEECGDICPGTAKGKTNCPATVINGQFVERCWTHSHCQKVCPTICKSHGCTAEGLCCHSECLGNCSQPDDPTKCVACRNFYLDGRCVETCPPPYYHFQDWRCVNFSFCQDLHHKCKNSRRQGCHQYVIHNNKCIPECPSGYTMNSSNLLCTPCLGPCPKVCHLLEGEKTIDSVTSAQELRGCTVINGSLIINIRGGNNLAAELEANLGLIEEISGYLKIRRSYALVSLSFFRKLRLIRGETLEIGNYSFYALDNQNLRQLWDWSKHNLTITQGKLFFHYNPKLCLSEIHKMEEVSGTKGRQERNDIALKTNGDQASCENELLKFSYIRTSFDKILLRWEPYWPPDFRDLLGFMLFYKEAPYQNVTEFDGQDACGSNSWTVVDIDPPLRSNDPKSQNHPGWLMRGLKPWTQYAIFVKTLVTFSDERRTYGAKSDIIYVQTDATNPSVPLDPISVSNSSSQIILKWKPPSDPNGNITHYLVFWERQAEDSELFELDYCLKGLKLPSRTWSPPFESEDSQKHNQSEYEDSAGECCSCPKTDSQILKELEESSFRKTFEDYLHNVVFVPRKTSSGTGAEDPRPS
Sequence of Insulin receptor (P06213 763-1382 limits assumed): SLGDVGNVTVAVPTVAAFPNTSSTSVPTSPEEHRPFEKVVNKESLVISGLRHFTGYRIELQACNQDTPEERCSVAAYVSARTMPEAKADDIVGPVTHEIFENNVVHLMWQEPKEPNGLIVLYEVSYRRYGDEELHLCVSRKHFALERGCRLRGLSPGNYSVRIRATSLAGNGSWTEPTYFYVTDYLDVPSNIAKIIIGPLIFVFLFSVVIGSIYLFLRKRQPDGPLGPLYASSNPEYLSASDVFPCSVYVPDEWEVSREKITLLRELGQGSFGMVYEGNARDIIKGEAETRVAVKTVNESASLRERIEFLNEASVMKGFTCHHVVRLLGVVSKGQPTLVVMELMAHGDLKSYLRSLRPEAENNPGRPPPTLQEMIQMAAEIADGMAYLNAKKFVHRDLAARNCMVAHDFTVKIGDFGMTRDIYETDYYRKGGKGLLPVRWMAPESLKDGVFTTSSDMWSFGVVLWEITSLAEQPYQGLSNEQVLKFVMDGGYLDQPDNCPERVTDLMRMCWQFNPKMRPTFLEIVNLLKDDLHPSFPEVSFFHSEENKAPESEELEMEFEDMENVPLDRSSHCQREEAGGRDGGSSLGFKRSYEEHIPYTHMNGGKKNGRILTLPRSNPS
Sequence of Epidermal growth factor receptor (P00533 whole entry): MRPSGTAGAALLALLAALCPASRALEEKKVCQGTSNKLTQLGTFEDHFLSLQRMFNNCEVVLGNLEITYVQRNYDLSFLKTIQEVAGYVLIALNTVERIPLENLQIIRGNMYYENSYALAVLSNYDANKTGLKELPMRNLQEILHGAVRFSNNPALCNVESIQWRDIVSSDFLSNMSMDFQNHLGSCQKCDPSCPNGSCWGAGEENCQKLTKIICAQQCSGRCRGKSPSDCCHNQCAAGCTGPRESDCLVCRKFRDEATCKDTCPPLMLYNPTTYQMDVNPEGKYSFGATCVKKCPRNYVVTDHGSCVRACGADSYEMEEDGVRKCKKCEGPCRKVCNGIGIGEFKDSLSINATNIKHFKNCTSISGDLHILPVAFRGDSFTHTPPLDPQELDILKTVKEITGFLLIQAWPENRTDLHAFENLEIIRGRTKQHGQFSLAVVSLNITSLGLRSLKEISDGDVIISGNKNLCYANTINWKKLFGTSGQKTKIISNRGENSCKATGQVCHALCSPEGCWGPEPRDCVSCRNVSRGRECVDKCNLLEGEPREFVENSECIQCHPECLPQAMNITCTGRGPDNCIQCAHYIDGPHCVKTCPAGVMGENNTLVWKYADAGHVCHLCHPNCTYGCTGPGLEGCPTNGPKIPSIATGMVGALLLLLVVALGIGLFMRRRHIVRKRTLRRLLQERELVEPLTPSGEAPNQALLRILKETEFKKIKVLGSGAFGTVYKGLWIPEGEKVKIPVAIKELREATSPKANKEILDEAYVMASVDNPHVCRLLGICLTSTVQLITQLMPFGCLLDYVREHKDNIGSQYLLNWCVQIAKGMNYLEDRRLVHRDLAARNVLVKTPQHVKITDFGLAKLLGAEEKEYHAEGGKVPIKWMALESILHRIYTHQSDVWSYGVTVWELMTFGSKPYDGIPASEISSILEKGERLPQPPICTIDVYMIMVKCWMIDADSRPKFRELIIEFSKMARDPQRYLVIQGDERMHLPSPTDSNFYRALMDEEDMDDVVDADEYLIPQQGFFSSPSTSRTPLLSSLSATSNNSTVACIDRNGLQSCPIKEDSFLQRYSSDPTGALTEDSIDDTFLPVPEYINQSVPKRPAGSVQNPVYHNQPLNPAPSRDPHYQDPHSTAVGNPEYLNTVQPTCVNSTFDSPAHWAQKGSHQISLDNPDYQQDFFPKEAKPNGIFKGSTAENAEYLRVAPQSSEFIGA
Sequence of Platelet-derived growth factor receptor beta (P09619 whole entry): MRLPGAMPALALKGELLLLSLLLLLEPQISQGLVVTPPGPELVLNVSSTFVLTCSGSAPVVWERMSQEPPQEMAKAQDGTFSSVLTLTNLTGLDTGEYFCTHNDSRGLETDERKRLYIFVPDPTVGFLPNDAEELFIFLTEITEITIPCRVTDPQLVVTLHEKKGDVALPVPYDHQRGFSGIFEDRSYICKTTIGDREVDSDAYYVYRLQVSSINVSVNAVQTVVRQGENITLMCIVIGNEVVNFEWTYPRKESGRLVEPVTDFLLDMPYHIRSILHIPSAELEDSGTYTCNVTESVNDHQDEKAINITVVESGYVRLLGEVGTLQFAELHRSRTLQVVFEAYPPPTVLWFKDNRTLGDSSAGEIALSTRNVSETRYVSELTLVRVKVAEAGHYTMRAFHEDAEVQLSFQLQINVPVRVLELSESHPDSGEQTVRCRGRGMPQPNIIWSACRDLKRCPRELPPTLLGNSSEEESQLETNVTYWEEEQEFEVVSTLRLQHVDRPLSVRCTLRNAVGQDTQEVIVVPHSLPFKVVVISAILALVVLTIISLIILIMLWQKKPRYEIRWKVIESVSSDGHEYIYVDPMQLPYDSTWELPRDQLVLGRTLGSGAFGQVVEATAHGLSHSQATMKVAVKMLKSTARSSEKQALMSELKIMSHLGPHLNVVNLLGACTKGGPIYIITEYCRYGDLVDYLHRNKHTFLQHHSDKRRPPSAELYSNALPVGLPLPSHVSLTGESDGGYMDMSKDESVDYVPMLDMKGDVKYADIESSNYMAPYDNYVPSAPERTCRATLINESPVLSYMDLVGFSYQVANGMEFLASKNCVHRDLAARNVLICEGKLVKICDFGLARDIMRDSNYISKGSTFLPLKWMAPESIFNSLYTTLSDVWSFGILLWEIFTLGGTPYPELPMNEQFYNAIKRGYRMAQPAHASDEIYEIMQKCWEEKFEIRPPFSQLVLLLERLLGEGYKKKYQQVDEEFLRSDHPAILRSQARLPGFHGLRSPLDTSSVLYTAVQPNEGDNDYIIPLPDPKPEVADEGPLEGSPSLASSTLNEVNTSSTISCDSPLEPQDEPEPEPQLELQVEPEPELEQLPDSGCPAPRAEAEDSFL
Sequence of Serine/threonine-protein kinase PLK1 (P53350 whole entry): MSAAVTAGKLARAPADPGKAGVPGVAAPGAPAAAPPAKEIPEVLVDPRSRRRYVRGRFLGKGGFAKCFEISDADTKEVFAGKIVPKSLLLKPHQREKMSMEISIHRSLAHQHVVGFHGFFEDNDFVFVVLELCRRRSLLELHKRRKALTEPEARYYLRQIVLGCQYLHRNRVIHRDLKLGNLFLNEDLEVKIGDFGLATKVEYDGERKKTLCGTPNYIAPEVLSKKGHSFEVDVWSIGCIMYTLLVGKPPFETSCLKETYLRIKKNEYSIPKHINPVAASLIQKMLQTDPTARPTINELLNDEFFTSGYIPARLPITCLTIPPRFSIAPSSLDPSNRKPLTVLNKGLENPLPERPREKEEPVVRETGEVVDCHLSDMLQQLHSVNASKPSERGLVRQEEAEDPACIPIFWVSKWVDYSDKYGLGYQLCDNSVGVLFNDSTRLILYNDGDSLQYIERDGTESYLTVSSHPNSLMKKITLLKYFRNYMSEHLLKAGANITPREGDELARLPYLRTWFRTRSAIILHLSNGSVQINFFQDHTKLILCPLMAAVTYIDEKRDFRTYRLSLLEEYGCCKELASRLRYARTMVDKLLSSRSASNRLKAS
Sequence of Histone deacetylase 3 (O15379 whole entry, the tested form may be a part): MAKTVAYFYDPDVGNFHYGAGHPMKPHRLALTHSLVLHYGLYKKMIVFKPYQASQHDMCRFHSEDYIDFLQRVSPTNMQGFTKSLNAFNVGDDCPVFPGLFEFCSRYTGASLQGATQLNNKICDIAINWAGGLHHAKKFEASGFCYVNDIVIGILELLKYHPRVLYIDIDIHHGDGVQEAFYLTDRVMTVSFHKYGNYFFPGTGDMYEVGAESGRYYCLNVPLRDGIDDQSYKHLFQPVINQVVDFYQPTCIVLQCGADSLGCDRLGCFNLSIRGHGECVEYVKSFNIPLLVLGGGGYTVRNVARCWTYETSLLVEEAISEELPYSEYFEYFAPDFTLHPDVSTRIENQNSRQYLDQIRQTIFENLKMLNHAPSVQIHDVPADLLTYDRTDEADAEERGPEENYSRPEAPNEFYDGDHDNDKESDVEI

As usually defined, the IC50 is the midpoint of a concentration-inhibition curve. As for `Nc1ccccc1NC(=O)/C=C/c1ccc(-c2ccc3ncnc(Nc4ccc(OCc5cccc(F)c5)c(Cl)c4)c3c2)o1`, the IC50 was over 100 µM in [1]; 6.5 µM in [2]; 4.9 µM in assay [3]; 8.5 µM in assay [4]; 18 µM in assay [5]; 0.26 µM in [6]. The IC50 in assay [7] is 3.6 µM; in [8] it was over 32 µM; in assay [9], over 32 µM; in assay [10] it was over 100 µM; in assay [11], 5.3 µM; in [12], 0.0087 µM. The IC50 in [13] was over 32 µM; in assay [14], 0.026 µM; in [15], 22 µM; in assay [16], 3.9 µM; in assay [17], 1.9 µM; in assay [18], 5.5 µM. Moreover, the IC50 in [19] was over 32 µM.

As usually defined, the EC50 is the concentration giving half of the maximal effect. As to `Nc1ccccc1NC(=O)/C=C/c1cccc(-c2ccc3ncnc(Nc4ccc(OCc5cccc(F)c5)c(Cl)c4)c3c2)c1`, the IC50 was over 100 µM in [1]; 8.4 µM in assay [2]; 2.9 µM in [3]; 5.5 µM in assay [4]; 27 µM in assay [5]; 50 µM in assay [6]. The IC50 in assay [7] was over 16 µM; in assay [8], over 32 µM; in assay [9] it was over 32 µM; in [10], over 100 µM; in [11] it was 12 µM; in [12], 0.014 µM. Further, the IC50 in assay [13] was over 32 µM; in [14], 0.049 µM; in assay [15] it was 36 µM; in assay [16], 2.5 µM; in [17] it was 0.85 µM; in assay [18] it was 2.8 µM. Besides, the IC50 in assay [19] was over 32 µM. For the same molecule, the EC50 in [20] is at least 20 µM.

In the case of `Nc1ccccc1NC(=O)c1ccc(-c2ccc3ncnc(Nc4ccc(OCc5cccc(F)c5)c(Cl)c4)c3c2)o1`, the IC50 in assay [1] is over 100 µM; in assay [2], 8 µM; in assay [3], 4.5 µM; in assay [4], 3.9 µM; in assay [5], at least 16 µM; in assay [7], 0.33 µM. The IC50 in [8] is over 100 µM; in [9] it was over 32 µM; in [10], over 50 µM; in assay [11], over 5 µM; in assay [12], 0.0057 µM; in [13], over 10 µM. Further, the concentration for half-maximal inhibition (IC50) was 0.0029 µM in assay [14]; over 50 µM in [15]; 4 µM in assay [16]; 15 µM in assay [17]; over 32 µM in assay [19]. For the same molecule, the EC50 in assay [20] is over 100 µM.

As to `O=C(/C=C/c1ccc(-c2ccc3ncnc(Nc4ccc(OCc5cccc(F)c5)c(Cl)c4)c3c2)cc1)NO`, the IC50 in assay [1] was over 100 µM; in assay [2], 0.92 µM; in assay [3], 4.9 µM; in assay [4], 9.1 µM; in assay [5], 1.1 µM; in [6] it was 0.33 µM. For the same molecule, the IC50 was 0.28 µM in [7]; over 32 µM in assay [8]; over 32 µM in assay [9]; 0.65 µM in assay [10]; 0.51 µM in assay [11]; 0.012 µM in assay [12]. Also, the IC50 in assay [13] was 0.23 µM; in assay [14], 0.018 µM; in [15], 1.2 µM; in assay [16], 2.3 µM; in assay [17] it was 0.85 µM; in assay [18] it was 3.7 µM. In addition, the IC50 in assay [19] turned out to be 31 µM. In assay [20], the EC50 was over 10 µM.

`Nc1ccccc1NC(=O)CCc1ccc(-c2ccc3ncnc(Nc4ccc(OCc5cccc(F)c5)c(Cl)c4)c3c2)cc1`: the half-inhibitory concentration (IC50) in assay [1] is over 100 µM; in assay [2], 8.3 µM; in assay [3], 6.9 µM; in assay [4] it was 27 µM; in assay [5] it was 22 µM; in assay [6] it was 4.4 µM. Moreover, the half-maximal inhibitory concentration (IC50) was 0.2 µM in assay [7]; over 32 µM in assay [8]; over 32 µM in assay [9]; over 32 µM in assay [10]; 8.6 µM in assay [11]; 0.0047 µM in [12]. Further, the IC50 in [13] was over 32 µM; in [14] it was 0.015 µM; in assay [15], 13 µM; in [16], 4.7 µM; in [17] it was 1.4 µM; in assay [18], 7.1 µM. For the same molecule, the IC50 in assay [19] was over 32 µM.

`O=C(NO)c1ccc(-c2ccc3ncnc(Nc4ccc(OCc5cccc(F)c5)c(Cl)c4)c3c2)o1`: the IC50 in assay [1] is 85 µM; in assay [3], 1.7 µM; in [4] it was 2 µM; in assay [5], over 16 µM; in assay [6], 0.27 µM; in assay [7], 0.2 µM. Also, the IC50 was over 32 µM in assay [9]; over 50 µM in [10]; over 5 µM in assay [11]; 0.002 µM in [12]; 0.0039 µM in [14]; 15 µM in assay [15]. Further, the IC50 was 1 µM in assay [16], 0.46 µM in assay [17], 1.4 µM in assay [18] and 7.7 µM in [19]. Further, the EC50 in assay [20] was over 100 µM.

Take `O=C(NO)c1ccc(-c2ccc3ncnc(Nc4ccc(OCc5cccc(F)c5)c(Cl)c4)c3c2)s1`: the IC50 in assay [1] was over 100 µM; in assay [3], 1.7 µM; in [5], 3.4 µM; in assay [6] it was 0.42 µM; in assay [7] it was 0.65 µM; in [8] it was 0.43 µM. Also, the IC50 in [9] worked out at 0.56 µM; in assay [10], 0.94 µM; in assay [11], 1.9 µM; in [12], 0.0035 µM; in assay [13] it was 0.05 µM; in [14], 0.0022 µM. In addition, the IC50 in assay [15] amounted to 3.1 µM; in [16], 1.8 µM; in assay [17] it was 0.2 µM; in assay [18], 1.7 µM; in [19] it was 0.98 µM. Moreover, the EC50 in assay [20] was over 100 µM.

With `CS(=O)(=O)CCNCc1ccc(-c2ccc3ncnc(Nc4ccc(OCc5cccc(F)c5)c(Cl)c4)c3c2)o1` [LAPATINIB], the IC50 in [1] is over 100 µM; in assay [2], 5.9 µM; in assay [6] it was 0.002 µM; in assay [7], 0.007 µM; in assay [9] it was over 10 µM; in assay [13], over 10 µM. The IC50 in assay [15] was 0.003 µM; in assay [19] it was over 10 µM. Further, in assay [20], the EC50 was over 30 µM.
